This note sets out measurements from US20240109917A1 (ACTELION PHARMACEUTICALS LTD, priority 2020, published 2024).

The target of assay [1] is His6-TEV-PDGFRβ (557-1016) (Homo sapiens (Human), UniProt P09619). Nature of the assay: PDGFRβ HTRF Assay. It counts as biochemical. The following applies: read-out: PDGFR HTRF IC50. A digest of the protocol:
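Human PDGFRβ (557-1016) pre-incubated with compound for 30 min at RT in pH 7.5 HEPES/MgCl2/EGTA/Brij-35/DTT buffer. Reaction started with ATP and TK-biotin peptide, run 3 h at RT, then quenched with EDTA-containing Eu-cryptate antibody/streptavidin-XL665. HTRF 665/620 nm ratio read after 60 min; percent inhibition relative to DMSO and 10 μM imatinib controls.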
Background: TR-FRET usually uses a lanthanide donor and a delayed reading to cut background.

The target of assay [2] is Tb-labeled inactive PDGFRβ (Homo sapiens (Human), UniProt P09619). Put plainly: PDGFRβ LanthaScreen Assay. It counts as binding. The following applies: read-out: PDGFR Lantha IC50.
Tb-labeled inactive PDGFRβ, sequence (P09619 33-1106): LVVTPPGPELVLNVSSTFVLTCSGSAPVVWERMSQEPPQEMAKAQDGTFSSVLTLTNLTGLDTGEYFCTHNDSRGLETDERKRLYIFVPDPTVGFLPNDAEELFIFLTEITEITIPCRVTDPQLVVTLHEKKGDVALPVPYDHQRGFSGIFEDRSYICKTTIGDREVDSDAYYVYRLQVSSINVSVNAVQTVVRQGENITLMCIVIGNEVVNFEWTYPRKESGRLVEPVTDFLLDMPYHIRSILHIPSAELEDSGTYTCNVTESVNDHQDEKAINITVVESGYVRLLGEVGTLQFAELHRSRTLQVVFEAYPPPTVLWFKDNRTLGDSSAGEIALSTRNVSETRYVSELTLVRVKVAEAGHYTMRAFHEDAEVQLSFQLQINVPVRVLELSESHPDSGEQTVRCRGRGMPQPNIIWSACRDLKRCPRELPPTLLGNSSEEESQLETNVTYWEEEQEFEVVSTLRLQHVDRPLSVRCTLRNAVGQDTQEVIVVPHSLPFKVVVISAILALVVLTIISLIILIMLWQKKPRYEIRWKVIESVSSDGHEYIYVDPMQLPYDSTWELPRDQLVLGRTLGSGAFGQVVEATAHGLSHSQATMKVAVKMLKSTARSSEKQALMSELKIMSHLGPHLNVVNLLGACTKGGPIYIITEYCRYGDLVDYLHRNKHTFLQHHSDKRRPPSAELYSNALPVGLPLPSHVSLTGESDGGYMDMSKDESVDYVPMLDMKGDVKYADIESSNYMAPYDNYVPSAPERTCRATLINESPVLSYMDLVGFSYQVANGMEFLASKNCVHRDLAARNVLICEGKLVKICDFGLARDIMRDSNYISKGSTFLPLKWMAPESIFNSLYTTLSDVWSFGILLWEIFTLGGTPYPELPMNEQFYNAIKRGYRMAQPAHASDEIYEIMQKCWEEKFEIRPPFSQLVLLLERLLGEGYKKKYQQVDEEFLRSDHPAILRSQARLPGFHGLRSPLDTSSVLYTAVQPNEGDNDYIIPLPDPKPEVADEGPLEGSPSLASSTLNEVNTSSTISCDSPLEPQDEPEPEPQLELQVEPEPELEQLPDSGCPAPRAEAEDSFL
The target in the next assay is PDGFRβ (Rattus norvegicus (Rat), UniProt Q05030). Put plainly: PDGFRβ Cellular Assay (PDGFRb P-Y751 HTRF in A10 cells stimulated with PDGF-BB). The following applies: read-out: PDGFR Cellular IC50. It counts as cell-based. A digest of the protocol: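 Rat A10 cells, plated overnight, were treated with compound for 3 hours, then stimulated with PDGF-BB (working stock 100 ng/mL in 10% FBS medium). After lysis, PDGFRβ P-Y751 was detected by HTRF.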
PDGFRβ, sequence (Q05030 32-1097): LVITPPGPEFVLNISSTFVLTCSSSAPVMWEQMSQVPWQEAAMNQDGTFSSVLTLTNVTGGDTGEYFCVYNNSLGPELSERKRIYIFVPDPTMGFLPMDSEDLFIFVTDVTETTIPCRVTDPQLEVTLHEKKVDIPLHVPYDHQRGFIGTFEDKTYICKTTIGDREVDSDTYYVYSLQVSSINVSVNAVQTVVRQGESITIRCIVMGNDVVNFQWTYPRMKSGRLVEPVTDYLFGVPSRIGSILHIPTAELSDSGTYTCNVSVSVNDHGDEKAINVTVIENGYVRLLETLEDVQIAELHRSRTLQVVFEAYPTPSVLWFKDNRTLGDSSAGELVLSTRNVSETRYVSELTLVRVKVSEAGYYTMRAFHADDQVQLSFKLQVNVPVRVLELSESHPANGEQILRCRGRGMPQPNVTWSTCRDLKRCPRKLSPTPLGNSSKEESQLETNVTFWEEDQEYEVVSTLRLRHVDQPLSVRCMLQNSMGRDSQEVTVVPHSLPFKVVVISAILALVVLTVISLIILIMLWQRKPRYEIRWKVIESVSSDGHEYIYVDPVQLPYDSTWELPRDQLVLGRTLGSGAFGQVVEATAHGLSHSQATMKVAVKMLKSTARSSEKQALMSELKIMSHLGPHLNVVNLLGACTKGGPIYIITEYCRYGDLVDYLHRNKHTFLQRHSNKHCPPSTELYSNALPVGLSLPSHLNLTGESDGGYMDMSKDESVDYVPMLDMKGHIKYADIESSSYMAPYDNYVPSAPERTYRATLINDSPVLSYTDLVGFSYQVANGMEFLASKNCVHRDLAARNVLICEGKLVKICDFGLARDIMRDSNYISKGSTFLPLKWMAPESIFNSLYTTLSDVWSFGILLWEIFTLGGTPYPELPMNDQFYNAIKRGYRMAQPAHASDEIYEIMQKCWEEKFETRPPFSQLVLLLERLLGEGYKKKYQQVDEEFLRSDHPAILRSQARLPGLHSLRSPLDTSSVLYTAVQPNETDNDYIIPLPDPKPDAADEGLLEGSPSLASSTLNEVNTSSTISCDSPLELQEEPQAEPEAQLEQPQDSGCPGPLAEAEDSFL

His6-TEV-PDGFRβ (557-1016), sequence (P09619 557-1016): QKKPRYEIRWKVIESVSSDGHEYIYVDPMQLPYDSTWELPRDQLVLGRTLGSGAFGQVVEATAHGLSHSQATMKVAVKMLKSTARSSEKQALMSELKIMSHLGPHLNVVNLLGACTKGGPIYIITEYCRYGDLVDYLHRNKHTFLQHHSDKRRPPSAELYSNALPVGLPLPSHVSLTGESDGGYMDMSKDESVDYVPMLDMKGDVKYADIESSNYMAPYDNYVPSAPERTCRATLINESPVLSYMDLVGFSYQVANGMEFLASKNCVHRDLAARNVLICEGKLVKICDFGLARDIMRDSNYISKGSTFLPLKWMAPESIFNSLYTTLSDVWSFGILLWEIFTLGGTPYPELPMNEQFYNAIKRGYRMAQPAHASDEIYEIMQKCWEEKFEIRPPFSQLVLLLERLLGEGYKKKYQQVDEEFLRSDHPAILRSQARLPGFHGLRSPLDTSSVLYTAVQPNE

Take `Cc1ncc(NC(=O)CN2CC3(COC3)C2)cc1NC(=O)c1cnn2cc(-c3cnn4c3OCCC4)sc12` [Example 411, N-(5-(2-(2-oxa-6-azaspiro[3.3]heptan-6-yl)acetamido)-2-methylpyridin-3-yl)-2-(6,7-dihydro-5H-pyrazolo[5,1-b][1,3]oxazin-3-yl)pyrazolo[5,1-b]thiazole-7-carboxamide]: the results for the half-maximal inhibitory concentration (IC50) (in assay [1]; in assay [2]; at PDGFRβ) were 0.5 nM, 6.6 nM and 114 nM, respectively.

In the case of `Cc1ncc(NC(=O)CN2CCC[C@@H]2C)cc1NC(=O)c1cnn2cc(-c3cnn4c3COCC4)sc12` [Example 473, (S)-2-(6,7-dihydro-4H-pyrazolo[5,1-c][1,4]oxazin-3-yl)-N-(2-methyl-5-(2-(2-methylpyrrolidin-1-yl)acetamido)pyridin-3-yl)pyrazolo[5,1-b]thiazole-7-carboxamide], the IC50 in assay [1] was 0.4 nM; in assay [2], 4.8 nM; at PDGFRβ, 5.3 nM.

Turning to `Cc1ncc(NC(=O)CN2CC3(CCCCO3)C2)cc1NC(=O)c1cnn2cc(-c3cnn4c3OCCC4)sc12` [Example 423, N-(5-(2-(5-oxa-2-azaspiro[3.5]nonan-2-yl)acetamido)-2-methylpyridin-3-yl)-2-(6,7-dihydro-5H-pyrazolo[5,1-b][1,3]oxazin-3-yl)pyrazolo[5,1-b]thiazole-7-carboxamide], the IC50 in assay [1] was 0.4 nM; in assay [2], 3.7 nM; at PDGFRβ, 15.8 nM.

`Cc1ncc(C(=O)NCCN2CCCC2(C)C)cc1NC(=O)c1cnn2cc(-c3cnn4c3COCC4)sc12` [Example 450, 2-(6,7-dihydro-4H-pyrazolo[5,1-c][1,4]oxazin-3-yl)-N-(5-((2-(2,2-dimethylpyrrolidin-1-yl)ethyl)carbamoyl)-2-methylpyridin-3-yl)pyrazolo[5,1-b]thiazole-7-carboxamide]: the concentration for half-maximal inhibition (IC50) in assay [1] came to 0.4 nM; in assay [2], 2.4 nM; at PDGFRβ, 21.6 nM.

As for `Cc1ncc(NC(=O)CN2CCCCC2)cc1NC(=O)c1cnn2cc(-c3cnn4c3OCCC4)sc12` [Example 419, 2-(6,7-dihydro-5H-pyrazolo[5,1-b][1,3]oxazin-3-yl)-N-(2-methyl-5-(2-(piperidin-1-yl)acetamido)pyridin-3-yl)pyrazolo[5,1-b]thiazole-7-carboxamide], the IC50 in assay [1] turned out to be 0.3 nM; in assay [2], 2.8 nM; on PDGFRβ it was 2.6 nM.

Turning to `Cc1ncc(NC(=O)CN2CCC23CCC3)cc1NC(=O)c1cnn2cc(-c3cnn4c3OCCC4)sc12` [Example 408, N-(5-(2-(1-azaspiro[3.3]heptan-1-yl)acetamido)-2-methylpyridin-3-yl)-2-(6,7-dihydro-5H-pyrazolo[5,1-b][1,3]oxazin-3-yl)pyrazolo[5,1-b]thiazole-7-carboxamide], the values for the IC50 (in assay [1]; in assay [2]; on PDGFRβ) were 0.2 nM, 1.8 nM and 1.7 nM, respectively.

Turning to `Cc1ncc(NC(=O)CN2CCC23CCC3)cc1NC(=O)c1cnn2cc(-c3cnn4c3COCC4)sc12` [Example 475, N-(5-(2-(1-azaspiro[3.3]heptan-1-yl)acetamido)-2-methylpyridin-3-yl)-2-(6,7-dihydro-4H-pyrazolo[5,1-c][1,4]oxazin-3-yl)pyrazolo[5,1-b]thiazole-7-carboxamide], the IC50 in assay [1] is 0.2 nM; in assay [2], 1.4 nM; at PDGFRβ, 2.3 nM.

In the case of `Cc1ncc(C(=O)NCC2CCCN2C)cc1NC(=O)c1cnn2cc(-c3cnn4c3OCCC4)sc12` (stereo not drawn) [Example 470, 2-(6,7-dihydro-5H-pyrazolo[5,1-b][1,3]oxazin-3-yl)-N-(2-methyl-5-(((1-methylpyrrolidin-2-yl)methyl)carbamoyl)pyridin-3-yl)pyrazolo[5,1-b]thiazole-7-carboxamide], the IC50 in assay [1] came to 0.5 nM; in assay [2], 6.8 nM; on PDGFRβ, 109 nM.

For the compound `Cc1ncc(NC(=O)CNC2CCC2)cc1NC(=O)c1cnn2cc(-c3cnn4c3CCC4)sc12` [Example 471, N-(5-(2-(cyclobutylamino)acetamido)-2-methylpyridin-3-yl)-2-(5,6-dihydro-4H-pyrrolo[1,2-b]pyrazol-3-yl)pyrazolo[5,1-b]thiazole-7-carboxamide], the IC50 in assay [1] stood at 0.1 nM; in assay [2] it was 1 nM; at PDGFRβ it was 3.4 nM.

As for `Cc1ncc(NC(=O)CN2CCC[C@H]2C)cc1NC(=O)c1cnn2cc(-c3nn(C)nc3C)sc12` [Example 443, (R)-2-(2,5-dimethyl-2H-1,2,3-triazol-4-yl)-N-(2-methyl-5-(2-(2-methylpyrrolidin-1-yl)acetamido)pyridin-3-yl)pyrazolo[5,1-b]thiazole-7-carboxamide], the IC50 in assay [1] was determined as 0.4 nM; in assay [2] it was 4.4 nM; at PDGFRβ, 3.9 nM.

`Cc1ncc(NC(=O)CN2CC(C)(C)C2)cc1NC(=O)c1cnn2cc(-c3cnn4c3COCC4)sc12` [Example 476, 2-(6,7-dihydro-4H-pyrazolo[5,1-c][1,4]oxazin-3-yl)-N-(5-(2-(3,3-dimethylazetidin-1-yl)acetamido)-2-methylpyridin-3-yl)pyrazolo[5,1-b]thiazole-7-carboxamide]: the IC50 was found to be 0.2 nM in assay [1], 1.7 nM in assay [2] and 4.9 nM on PDGFRβ.

`Cc1ncc(C(=O)NCCN2CCCC23CCC3)cc1NC(=O)c1cnn2cc(-c3cnn4c3CCC4)sc12` [Example 461, N-(5-((2-(5-azaspiro[3.4]octan-5-yl)ethyl)carbamoyl)-2-methylpyridin-3-yl)-2-(5,6-dihydro-4H-pyrrolo[1,2-b]pyrazol-3-yl)pyrazolo[5,1-b]thiazole-7-carboxamide]: the IC50 in assay [1] came to 0.2 nM; in assay [2], 0.8 nM; at PDGFRβ, 2.1 nM.

Take `Cc1ncc(C(=O)NCCN2CCCC2(C)C)cc1NC(=O)c1cnn2cc(-c3cnn4c3OCCC4)sc12` [Example 460, 2-(6,7-dihydro-5H-pyrazolo[5,1-b][1,3]oxazin-3-yl)-N-(5-((2-(2,2-dimethylpyrrolidin-1-yl)ethyl)carbamoyl)-2-methylpyridin-3-yl)pyrazolo[5,1-b]thiazole-7-carboxamide]: the IC50 turned out to be 0.3 nM in assay [1], 1.6 nM in assay [2] and 13.4 nM on PDGFRβ.

As for `Cc1ncc(NC(=O)CN2CC(C)(C)C2)cc1NC(=O)c1cnn2cc(-c3cnn4c3OCCC4)sc12` [Example 39, 2-(6,7-dihydro-5H-pyrazolo[5,1-b][1,3]oxazin-3-yl)-N-(5-(2-(3,3-dimethylazetidin-1-yl)acetamido)-2-methylpyridin-3-yl)pyrazolo[5,1-b]thiazole-7-carboxamide], the IC50 in assay [1] stood at 0.3 nM; in assay [2], 1.9 nM; at PDGFRβ, 2 nM.

Take `Cc1ncc(NC(=O)CNCC2CC2)cc1NC(=O)c1cnn2cc(-c3cnn4c3OCCC4)sc12` [Example 453, N-(5-(2-((cyclopropylmethyl)amino)acetamido)-2-methylpyridin-3-yl)-2-(6,7-dihydro-5H-pyrazolo[5,1-b][1,3]oxazin-3-yl)pyrazolo[5,1-b]thiazole-7-carboxamide]: the IC50 in assay [1] came out at 0.6 nM; in assay [2], 5.8 nM; at PDGFRβ, 25.1 nM.

Consider `Cc1ncc(NC(=O)CNC2CCCC2)cc1NC(=O)c1cnn2cc(-c3cnn4c3CCC4)sc12` [Example 422, N-(5-(2-(cyclopentylamino)acetamido)-2-methylpyridin-3-yl)-2-(5,6-dihydro-4H-pyrrolo[1,2-b]pyrazol-3-yl)pyrazolo[5,1-b]thiazole-7-carboxamide], for which the IC50 in assay [1] was determined as 0.2 nM; in assay [2], 1.1 nM; on PDGFRβ, 2.6 nM.

With `Cc1ncc(NC(=O)CN2CC(C)(C)C2)cc1NC(=O)c1cnn2cc(-c3cnn(C)c3C)sc12` [Example 434, 2-(1,5-Dimethyl-1H-pyrazol-4-yl)-N-(5-(2-(3,3-dimethylazetidin-1-yl)acetamido)-2-methylpyridin-3-yl)pyrazolo[5,1-b]thiazole-7-carboxamide], the IC50 in assay [1] was determined as 0.2 nM; in assay [2], 2.2 nM; on PDGFRβ, 2.4 nM.

Consider `Cc1ncc(NC(=O)CN2CCCC2(C)C)cc1NC(=O)c1cnn2cc(-c3cnn(C(C)(C)CO)c3)sc12` [Example 457, N-(5-(2-(2,2-dimethylpyrrolidin-1-yl)acetamido)-2-methylpyridin-3-yl)-2-(1-(1-hydroxy-2-methylpropan-2-yl)-1H-pyrazol-4-yl)pyrazolo[5,1-b]thiazole-7-carboxamide], for which the IC50 is 0.4 nM in assay [1], 3.4 nM in assay [2] and 4 nM on PDGFRβ.

Take `Cc1ncc(C(=O)NCCN2CC(C)(C)C2)cc1NC(=O)c1cnn2cc(-c3cnn4c3CCC4)sc12` [Example 482, 2-(5,6-dihydro-4H-pyrrolo[1,2-b]pyrazol-3-yl)-N-(5-((2-(3,3-dimethylazetidin-1-yl)ethyl)carbamoyl)-2-methylpyridin-3-yl)pyrazolo[5,1-b]thiazole-7-carboxamide]: the results for the IC50 (in assay [1]; in assay [2]; on PDGFRβ) were 0.2 nM, 1.6 nM and 28.6 nM, respectively.

What is called IC50 is the concentration needed to halve the response being measured.
